The text below walks through data of patent US6410561B1, “Amide derivatives and nociceptin antagonists” (Japan Tobacco Inc., priority 1998, dated 2002).

Read-outs that look alike come from different tables or passages of the source. Where only a bound is given, the exact number is not on record here.

The subject of one data set is Mice. Put plainly: Hot-plate test. It counts as in vivo. Conditions: Mus musculus, 1 h, oral, 60 min after administration, 55.5°C, read-out: Hot-plate M.E.D. (minimum effective dose). How it is done:
Mice (Crj, ICR, 4-week-old, male) were placed on a hot-plate (temperature 55.5±0.5° C.) and the time until the mice jumped and tried to run away was recorded. The mice were grouped according to the time and body weight so that the groups were evenly membered. The test compound was suspended in a 0.5% methylcellulose (MC) solution and orally administered to mice. After 60 min, the mice were again placed on a hot-plate and the time until they licked the hindlimb or jumped and tried to run away was recorded. The significant difference from the group administered with solvent was analyzed with ANOVA followed by Dunnett two-tailed test.
(In general: In hot-plate and tail-flick tests a longer latency is read as antinociception.)

The target in another data set is T1, ORL-1 receptor (Homo sapiens, UniProt P41146).
T1 construct: expressed in transfected cells
Nature of the data set: ORL1 receptor binding assay ([3H]nociceptin). The settings on record: for Ki: calculated from IC50 and Kd of [3H]nociceptin; for IC50: membrane of human ORL-1 expression cells, [3H]nociceptin 0.5 nM. How it is done: ORL1 Receptor Binding Assay
A cell membrane suspension obtained from human ORL-1 expression cells was adjusted with Tris buffer [50 mM Tris, 2 mM EDTA, 0.1 mM (p-Amidinophenyl)methanesulfonyl Fluoride Hydrochloride (p-APMSF), 2 mg/ml BSA] to membrane protein amount of about 25 μg/ml (2.5 μg/well). This was mixed with [^3H]nociceptin (diluted with Tris buffer to a final concentration of 0.5 nM) and test compound (diluted with Tris buffer to a final concentration of 10 nM-10 μM), and the mixture was incubated at room temperature for 60 min. The membrane was recovered on a G/F-B filter (Packard, Unifilter 96GF/B) using a cell harvester and the reaction was stopped. After washing 3 times, the filter was dried at 42° C. for 1 hr. A scintillation solution (Packard, microscint-20) was added and the radioactivity (Packard, Top count A9912V) was assayed.
The nonspecific binding was the binding in the presence of 1 μM nociceptin and the difference between the total binding and nonspecific binding was taken as the specific binding. IC50 was calculated from inhibition of specific binding at each concentration of the compound, and Ki value of the test compound was calculated from this value and Kd value of [^3H]nociceptin.

The target of the next data set is T2, μ receptor (Rattus norvegicus, UniProt P33535).
T2 construct: Rat cerebrum membrane standard sample; from tissue; host or cells: rat cerebrum membranes
Nature of the data set: μ receptor binding assay ([3H]DAMGO). Conditions: for Ki: calculated from IC50 and Kd of [3H]DAMGO; for IC50: rat cerebrum membrane, [3H]DAMGO 1 nM. How it is done: Rat cerebrum membrane standard sample (final concentration 0.755 mg·protein/ml), [^3H]DAMGO (Try-D-Ala-Gly-NMe-Phe-Gly-ol) [diluted with Tris buffer (50 mM Tris-HCl, 0.1 mM p-APMSF, 2 mg/ml BSA (pH=7.4)) to a final concentration of 1 nM] and test compound (diluted with Tris buffer to a final concentration of 10 nM-10 μM) were mixed, and the mixture was incubated at room temperature for 90 min. The membrane was recovered on a G/F-B filter (same as above) using a cell harvester and the reaction was stopped. After washing 3 times, the filter was dried at 42° C. for 1 hr. A scintillation solution (same as above) was added and the radioactivity (same as above) was assayed.
The nonspecific binding was the binding in the presence of 10 μM naloxone and the difference between the total binding and nonspecific binding was taken as the specific binding. IC50 was calculated from inhibition of specific binding at each concentration of the compound, and Ki value of the test compound was calculated from this value and Kd value of [^3H]DAMGO.

In a further data set the test system is allodynia model. Nature of the data set: Allodynia test (intrathecal nociceptin, tactile stimulation). It counts as in vivo, Mice. Conditions: Mus musculus, read-out: Allodynia M.E.D. (minimum effective dose). How it is done: Mice (Crj, ICR, 4-week-old, male) were intrathecally administered with nociceptin (50 pg/5 μl) without anesthesia. For 20 min after administration and at 5 min intervals, an area from lateral region to tail of the mice was rubbed with a brush and the response of the mice was observed. The evaluation followed the criteria of 0; no change, 1; run or cry upon tactile stimulation, and 2; cry loud or dash away upon tactile stimulation. The test compound was suspended in a 0.5% MC solution and orally administered 60 min before nociceptin administration. The significant difference of the score of each administration group at 20 min after nociceptin administration from the group administered with solvent was analyzed with Mann-Whitny U-test.

Setting [1] is: mice, oral, 60 min before nociceptin 50 pg i.t., score at 20 min.

T1 sequence (P41146 whole entry): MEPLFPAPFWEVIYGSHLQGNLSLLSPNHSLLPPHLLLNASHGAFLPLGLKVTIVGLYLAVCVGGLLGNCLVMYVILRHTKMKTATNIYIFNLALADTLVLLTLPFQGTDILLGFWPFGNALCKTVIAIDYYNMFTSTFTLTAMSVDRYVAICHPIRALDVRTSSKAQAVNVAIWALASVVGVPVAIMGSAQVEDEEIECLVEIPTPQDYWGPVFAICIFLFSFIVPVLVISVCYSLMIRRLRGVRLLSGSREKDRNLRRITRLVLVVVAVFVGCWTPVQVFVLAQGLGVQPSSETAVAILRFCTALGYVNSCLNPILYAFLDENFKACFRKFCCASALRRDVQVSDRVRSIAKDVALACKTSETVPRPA
T2 sequence (P33535 whole entry): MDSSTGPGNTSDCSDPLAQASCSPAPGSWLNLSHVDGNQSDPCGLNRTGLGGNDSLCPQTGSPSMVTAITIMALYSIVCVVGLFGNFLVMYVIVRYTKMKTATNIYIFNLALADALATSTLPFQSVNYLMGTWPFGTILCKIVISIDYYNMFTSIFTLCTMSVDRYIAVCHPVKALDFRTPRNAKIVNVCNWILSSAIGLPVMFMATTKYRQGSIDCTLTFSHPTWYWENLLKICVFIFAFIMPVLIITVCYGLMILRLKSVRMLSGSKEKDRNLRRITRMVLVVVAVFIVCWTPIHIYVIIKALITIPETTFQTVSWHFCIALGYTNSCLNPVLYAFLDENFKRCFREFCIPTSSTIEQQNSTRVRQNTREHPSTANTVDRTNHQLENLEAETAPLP

With `CCc1ccc(OCc2ccccc2C(=O)Nc2ccc3nc(C)cc(N)c3c2)cc1.Cl` [Example 1, N-(4-amino-2-methyl-6-quinolyl)-2-[(4-ethylphenoxy)methyl]-benzamide hydrochloride], the minimal effective dose with Mice was found to be 1 mg/kg; in the data set with allodynia model (setting [1]), 0.3 mg/kg. Also, the Ki (commonly a dissociation constant, usually derived from enzyme kinetics or from competition with a known ligand) at ORL-1 receptor is 7 nM; on μ receptor, 570 nM. Also, the figures for the IC50 on ORL-1 receptor and on μ receptor were 120 nM and 1520 nM, respectively.
Take `Cc1cc(N)c2cc(NC(=O)c3ccccc3COc3ccccc3)ccc2n1.Cl` [Example 3, N-(4-amino-2-methyl-6-quinolyl)-2-(phenoxymethyl)benzamide hydrochloride]: the minimal effective dose in the data set with Mice is 30 mg/kg; in the data set with allodynia model (setting [1]), 3 mg/kg. For the same compound, the values for the Ki at ORL-1 receptor and on μ receptor were 79 nM and 417 nM, respectively. For the same compound, the results for the IC50 at ORL-1 receptor and at μ receptor were 1470 nM and 1110 nM, respectively.
On to `Cc1cc(C)cc(OCc2ccccc2C(=O)Nc2ccc3nc(C)cc(N)c3c2)c1.Cl` [Example 5, N-(4-amino-2-methyl-6-quinolyl)-2-[(3,5-dimethylphenoxy)methyl]benzamide hydrochloride], for which the melting point (commonly the temperature, or range, at which the solid turns liquid) is 265 °C. Moreover, on ORL-1 receptor, the Ki is 28 nM and the IC50 (commonly the point on the concentration scale where inhibition reaches its midpoint) was 520 nM. For the same compound, at μ receptor, the Ki was 505 nM and the IC50 worked out at 1340 nM. Moreover, the minimal effective dose in the data set on allodynia model (setting [1]) was found to be 3 mg/kg.
Turning to `COc1cccc(OCc2ccccc2C(=O)Nc2ccc3nc(C)cc(N)c3c2)c1OC.Cl` [Example 8, N-(4-amino-2-methyl-6-quinolyl)-2-[(2,3-dimethoxyphenoxy)methyl]benzamide hydrochloride], the melting point was determined as 196 °C. At ORL-1 receptor, the Ki is 50 nM and the IC50 worked out at 940 nM. At μ receptor, the Ki was 183 nM and the IC50 is 490 nM. The minimal effective dose in the data set on allodynia model (setting [1]) was determined as 3 mg/kg.
As to `Cc1cccc(OCc2ccccc2C(=O)Nc2ccc3nc(C)cc(N)c3c2)c1` [Example 9, N-(4-amino-2-methyl-6-quinolyl)-2-[(3-methylphenoxy)methyl]benzamide], the minimal effective dose was < 3 mg/kg with Mice and 1 mg/kg in the data set on allodynia model (setting [1]). Moreover, the values for the Ki at ORL-1 receptor and on μ receptor were 16 nM and 764 nM, respectively. Also, the results for the IC50 on ORL-1 receptor and at μ receptor were 320 nM and 2030 nM, respectively.
The compound `Cc1cc(N)c2cc(NC(=O)c3ccccc3COc3ccc(C(F)(F)F)cc3)ccc2n1.Cl` [Example 18, N-(4-amino-2-methyl-6-quinolyl)-2-[(4-trifluoromethylphenoxy)methyl]benzamide hydrochloride] gave a melting point of 220 °C. On ORL-1 receptor, the Ki is 4 nM and the half-maximal inhibitory concentration (IC50) was 90 nM. Also, on μ receptor, the Ki is 393 nM and the IC50 came to 1040 nM. Further, the minimal effective dose in the data set with allodynia model (setting [1]) was found to be 0.3 mg/kg.
The compound `Cc1cc(N)c2cc(NC(=O)c3ccccc3COc3ccccc3Cl)ccc2n1.Cl` [Example 27, N-(4-amino-2-methyl-6-quinolyl)-2-[(2-chlorophenoxy)methyl]benzamide hydrochloride] displayed a melting point of 165 °C. Also, at μ receptor, the Ki is 414 nM and the concentration for half-maximal inhibition (IC50) stood at 1060 nM. In addition, the minimal effective dose in the data set with allodynia model (po) stood at 0.3 mg/kg.
On the same counts, the results for `Cc1cc(N)c2cc(NC(=O)c3ccccc3COc3ccc([N+](=O)[O-])cc3)ccc2n1.Cl` [Example 32, N-(4-amino-2-methyl-6-quinolyl)-2-[(4-nitrophenoxy)methyl]benzamide hydrochloride] are 238 °C, 227 nM, 580 nM and > 0.3 mg/kg.
As for `Cc1cc(N)c2cc(NC(=O)c3ccccc3COc3ccc(Br)cc3)ccc2n1.Cl` [Example 33, N-(4-amino-2-methyl-6-quinolyl)-2-[(4-bromophenoxy)methyl]benzamide hydrochloride], the melting point was 252 °C. Further, on ORL-1 receptor, the inhibition constant (Ki) was 5 nM and the IC50 is 90 nM. Moreover, on μ receptor, the Ki is 565 nM and the IC50 amounted to 1440 nM. The minimal effective dose with allodynia model (setting [1]) is 0.3 mg/kg.
`CCCc1ccc(OCc2ccccc2C(=O)Nc2ccc3nc(C)cc(N)c3c2)cc1.Cl` [Example 34, N-(4-amino-2-methyl-6-quinolyl)-2-[(4-propylphenoxy)methyl]benzamide hydrochloride]: the minimal effective dose with Mice is 3 mg/kg; in the data set with allodynia model (setting [1]) it was 0.3 mg/kg. Besides, the values for the Ki at ORL-1 receptor and at μ receptor were 8 nM and 888 nM, respectively. Besides, the figures for the IC50 at ORL-1 receptor and on μ receptor were 140 nM and 2370 nM, respectively.
Consider `Cc1cc(N)c2cc(NC(=O)c3ccccc3COc3ccc(Cl)c(C)c3)ccc2n1.Cl` [Example 42, N-(4-amino-2-methyl-6-quinolyl)-2-[(4-chloro-3-methylphenoxy)methyl]benzamide hydrochloride], for which the minimal effective dose in the data set on Mice was 1 mg/kg; in the data set on allodynia model (setting [1]), 0.3 mg/kg. In addition, the Ki is 4 nM at ORL-1 receptor and 745 nM on μ receptor. Also, the IC50 on ORL-1 receptor was 80 nM; at μ receptor, 1990 nM.
As to `Cc1ccc(OCc2ccccc2C(=O)Nc2ccc3nc(C)cc(N)c3c2)c(Cl)c1.Cl` [Example 43, N-(4-amino-2-methyl-6-quinolyl)-2-[(2-chloro-4-methylphenoxy)methyl]benzamide hydrochloride], the minimal effective dose in the data set with Mice worked out at 1 mg/kg; with allodynia model (setting [1]) it was 0.3 mg/kg. For the same compound, the Ki at ORL-1 receptor is 5 nM; at μ receptor, 785 nM. Besides, the IC50 is 110 nM on ORL-1 receptor and 2100 nM at μ receptor.
For `CCc1cc(N)c2cc(NC(=O)c3ccccc3COc3ccc(Cl)cc3)ccc2n1.Cl` [Example 49], the minimal effective dose with Mice turned out to be 1 mg/kg; with allodynia model (setting [1]) it was 0.3 mg/kg. For the same compound, the Ki on ORL-1 receptor was 2 nM; at μ receptor, 464 nM. The results for the IC50 at ORL-1 receptor and on μ receptor were 40 nM and 1260 nM, respectively.
For the compound `Cc1cc(N)c2cc(NC(=O)c3ccccc3CCCCOc3ccccc3)ccc2n1.Cl` [Example 63], on ORL-1 receptor, the Ki is 54 nM and the IC50 came to 1030 nM. For the same compound, on μ receptor, the Ki is 545 nM and the IC50 is 1420 nM. Moreover, the minimal effective dose in the data set on allodynia model (setting [1]) was > 3 mg/kg.
`Cc1cc(N)c2cc(NC(=O)c3ccccc3CCCCCOc3ccccc3)ccc2n1.Cl` [Example 64] returned a melting point of 253 °C. Besides, on ORL-1 receptor, the Ki was 73 nM and the IC50 amounted to 1390 nM. In addition, on μ receptor, the Ki was 1380 nM and the 50% inhibitory concentration (IC50) was found to be 3610 nM. Moreover, in the data set on allodynia model (setting [1]), the minimal effective dose was > 3 mg/kg.
For the compound `Cc1cc(N)c2cc(NC(=O)c3ccccc3CCCCCCOc3ccccc3)ccc2n1.Cl` [Example 66], the melting point is 210 °C. Besides, on ORL-1 receptor, the Ki is 108 nM and the IC50 was 2000 nM. Besides, the minimal effective dose in the data set with allodynia model (setting [1]) was > 3 mg/kg.
For the compound `CCc1ccc(OCc2ccccc2C(=O)Nc2ccc3nc(CC)cc(N)c3c2)c(Cl)c1` [Example 90], the minimal effective dose with Mice came to 3 mg/kg. Moreover, at ORL-1 receptor, the Ki is 5 nM and the IC50 amounted to 110 nM. For the same compound, on μ receptor, the Ki was 442 nM and the IC50 was 1180 nM.
In the case of `Cc1cc(N)c2cc(NC(=O)c3ccccc3COc3ccc4c(c3)CCO4)ccc2n1.Cl` [Example 93], the melting point was 233 °C. At ORL-1 receptor, the Ki is 7 nM and the IC50 was determined as 120 nM. In addition, the minimal effective dose in the data set on allodynia model (setting [1]) is > 0.3 mg/kg.
